{
  "source": "a melting point compilation (Tetko et al.; mined from patent text by program, amines drawn as free bases though some values may be those of a salt)",
  "data": [
    {"units": {"melting point": "°C"}, "values": [
      {"smiles": "CC(O)c1cc(Br)ccc1OCc1ccccc1", "note": "(stereo not given)", "melting point": 76.7},
      {"smiles": "CC(=O)NC[C@H]1CN(c2cc(F)c(N3CCN(C(=O)COCc4ccccc4)CC3)c(F)c2)C(=O)O1", "melting point": "172 to 173"},
      {"smiles": "C=CCNCCC(OC)(c1ccccc1)c1ccccc1", "melting point": "40 to 50"},
      {"smiles": "CCCOc1nc(N)c2ncn(C3CCCCO3)c2n1", "note": "(stereo not given)", "melting point": "138 to 140"},
      {"smiles": "CCC1N=C(c2ccccc2Cl)c2cc(CC(=O)OC)sc2NC1=S", "note": "(stereo not given)", "melting point": "199 to 200"},
      {"smiles": "CC(C)CCC(=O)Nc1ccc2oc3c(c2c1)CCCC3", "melting point": 146},
      {"smiles": "CSC(Nc1cccc(C#N)c1)=C(C#N)S(=O)(=O)c1ccc(Cl)cc1", "melting point": "168 to 170"},
      {"smiles": "N#Cc1cnc2cc(Cl)c([N+](=O)[O-])cc2c1Cl", "melting point": "143 to 153"},
      {"smiles": "CC(C)C(NC(=O)Cn1cc(Cc2ccccc2)cc(NC(=O)OCc2ccccc2)c1=O)C(=O)C(F)(F)F", "note": "(stereo not given)", "melting point": "58 to 64"},
      {"smiles": "O=Cc1cccc2c1OC(c1ccccc1)CC2=O", "note": "(stereo not given)", "melting point": "112 to 113"},
      {"smiles": "COCCNc1ccc2ncnc(Nc3cccc(C)c3)c2c1", "melting point": "163 to 167"},
      {"smiles": "O=C1Cc2c([nH]c3ccccc23)-c2ncccc2N1", "melting point": "> 330"},
      {"smiles": "CCSc1ccc(-c2cncnc2)c2c1C(=O)CC(C)C2", "note": "(stereo not given)", "melting point": "168 to 171"},
      {"smiles": "Cc1nc2n(C)nc(C)n2c(=O)c1CCO", "melting point": 170},
      {"smiles": "CCNCC1CCN(c2c(F)cc3c(=O)c(C(=O)O)cn(CC(F)(F)F)c3c2F)C1", "note": "(stereo not given)", "melting point": "222 to 224"},
      {"smiles": "CCOC(=O)N1CC2CC1CN2Cc1ccccc1", "note": "(stereo not given)", "melting point": "124 to 128"},
      {"smiles": "CCCOc1nc(N)c2ncn(C3C=CCCC3)c2n1", "note": "(stereo not given)", "melting point": "157 to 159"},
      {"smiles": "COC(=O)C(=O)c1nsc(NC(=O)Oc2ccccc2)n1", "melting point": "74 to 79"},
      {"smiles": "O=C(c1cc(C(F)(F)F)cc(C(F)(F)F)c1)N1CCC2(CC1)C(=O)NCN2c1cccc(Cl)c1", "melting point": "235 to 236"},
      {"smiles": "Cc1c(-c2ccccc2)oc2c(C(=O)NCCCCl)cccc2c1=O", "melting point": "193 to 194"},
      {"smiles": "CN(C)CCCCCCc1nn(CC(N)=O)c(-c2ccccc2)c1-c1ccccc1", "melting point": "60 to 63"},
      {"smiles": "CNc1cc(-c2c(-c3ccc(F)cc3)ccn2C2CCNCC2)ccn1", "melting point": "165 to 167"},
      {"smiles": "C/C(=C\\c1ccc(C(=O)OC(C)C)cc1)c1ccc2c(c1)C(C)(C)CCC2(C)C", "melting point": "119 to 120"},
      {"smiles": "CCOC(=O)C(CC)C(=O)N1NCCCC1C(=O)OC(C)(C)C", "note": "(stereo not given)", "melting point": "78 to 79"},
      {"smiles": "CC(C)c1cccc(C(C)C)c1NC(=O)Nc1nnn(Cc2ccccc2)n1", "melting point": "180 to 181"},
      {"smiles": "CC(C)(C)c1cc(SCN2C(=O)CC(Sc3cc(C(C)(C)C)c(O)c(C(C)(C)C)c3)C2=O)cc(C(C)(C)C)c1O", "note": "(stereo not given)", "melting point": "138 to 140"},
      {"smiles": "C=CCc1cc(C(=O)OC)ccc1OCCCCCOc1ccc2c(=O)cc(C(=O)OC)oc2c1CCC", "melting point": "87 to 88"},
      {"smiles": "c1ccc(CN2CCN(Cc3n[nH]c4c3CCc3ccccc3-4)CC2)cc1", "melting point": "158 to 160"},
      {"smiles": "O=C(O)CC1CCC2(CC1)OOC1(O2)C2CC3CC(C2)CC1C3", "note": "(stereo not given)", "melting point": "146 to 148"},
      {"smiles": "Cc1nc2ccc(N3CCN(CCCC(=O)c4ccc(F)cc4)CC3)nc2nc1C", "melting point": "155 to 156"},
      {"smiles": "OCc1ccc2c(c1)ncn2-c1cccc(-c2ccccc2)c1", "melting point": "130 to 131"},
      {"smiles": "CN(C)C=C(C#N)C#N", "melting point": "81 to 82"},
      {"smiles": "COc1cc(OC)cc(N2Cc3cnc(S(C)=O)nc3NC2=O)c1", "note": "(stereo not given)", "melting point": "220 to 222"},
      {"smiles": "O=C(O)c1ccc2nc(S)[nH]c2c1", "melting point": "> 250"},
      {"smiles": "CCCCCCCCCCCCOC(=O)c1cc([N+](=O)[O-])c(C(=O)O)cc1C(=O)O", "melting point": 148},
      {"smiles": "CCOC(=O)c1c(N=Cc2ccc([N+](=O)[O-])s2)sc(N=Cc2ccc([N+](=O)[O-])s2)c1C(=O)OCC", "melting point": "255 to 257"},
      {"smiles": "CC(=O)COc1ccc(Cl)cc1Cc1ccccc1", "melting point": "65 to 66"},
      {"smiles": "CCn1ncc2cc3c(nc21)C(Cl)c1ccccc1CC3", "note": "(stereo not given)", "melting point": "107 to 110"},
      {"smiles": "COc1cc2c(cc1C(=O)Cl)nnn2C(C)=O", "melting point": 170},
      {"smiles": "COC(=O)c1ccc(O)c(C(=O)CC(=O)c2cc(C)ccc2OC)c1", "melting point": "145 to 147"},
      {"smiles": "CCCCCCCC1CC(C(=O)Nc2c(C(C)C)cccc2C(C)C)C(=O)O1", "note": "(stereo not given)", "melting point": "95 to 98"},
      {"smiles": "CN(Cc1cccc(-c2ccc(CC3SC(=O)NC3=O)cc2)c1)C(=O)c1cc(Cl)cc(Cl)c1", "note": "(stereo not given)", "melting point": 106},
      {"smiles": "O=C(Nc1ccnc(Cl)c1)NC1CCCC1", "melting point": "119 to 121"},
      {"smiles": "CCOC(=O)c1c(S)nc2cc(OC)c(OC)cc2c1-c1ccc(OC)c(OC)c1", "melting point": "265 to 266"},
      {"smiles": "COc1ccc(-c2nc3ncccc3o2)cc1OC1CCCC1", "melting point": "108 to 109"},
      {"smiles": "CS(=O)(=O)c1cnc2c(c1)CCC(c1ccc(Cl)c(Cl)c1)O2", "note": "(stereo not given)", "melting point": 172},
      {"smiles": "CNC(=C[N+](=O)[O-])NCCSCc1nccc(NC(N)=NCC(F)(F)F)n1", "melting point": "154 to 157"},
      {"smiles": "O=C1NCC=NN1c1ccc(C(CCl)c2ccc(Cl)cc2)c(C(F)(F)F)c1", "note": "(stereo not given)", "melting point": "157 to 158"},
      {"smiles": "CCCCC(=N)NC(=O)Nc1ccc(C)cc1", "melting point": "159 to 160"},
      {"smiles": "CC(=O)c1c(N(C)C)c(-c2ccccc2)n(Cc2ccc(Cl)cc2)c1C", "melting point": "118 to 119"}
    ]}
  ]
}
